Source: patent publication US9145398B2, “Methods of treating CXCR4-expressing cancers” (University of Louisville Research Foundation, Inc., priority 2010, dated 2015)
Entries after “also recorded” stand apart in the source; their conditions may differ.

Legend:
hCXCR4-GFP [1] = biological target: T1, hCXCR4-GFP (Homo sapiens, UniProt P61073); assay: Chemotaxis assay, hCXCR4-GFP expressing 300.19 cells, CXCL12; format: cell-based
Procedure: (§1) Cells were suspended in chemotaxis buffer (RPMI 1640, 1% fetal bovine serum, 1 mM HEPES) at a concentration of 1×10^7 cells per ml. Cell chemotaxis was determined by examining the migration of the 300.19 cells in response to administration of 50 μM test compound plus an optimized concentration of CXCL12 using a chemotaxis assay that was previously described in Basu et al. (Basu et al., Critical role for polar residues in coupling leukotriene B4 binding to signal transduction in BLT1, J. Biol. Chem. (2007) Vol. 282, pp. 10005-17). 100 μL of 300.19 cells from the above cell suspension were placed in the upper chamber of a Transwell support (Corning Costar, Cambridge, Mass.) and were separated by a 5 micron filter from a bottom chamber containing 50 μM test compound plus the optimized concentration of CXCL12 in a final bottom chamber volume of 600 μl. After 3 h of incubation at 37° C. in 5% CO2, the upper chamber was removed and cells in the lower chamber were counted in a Bürker chamber. Cell counts for all samples were normalized to a CXCL12 plus DMSO control and results are reported using this normalized measure, referred to herein as the chemotaxis index. In some instances, the IC50 concentration (i.e., the concentration at which the chemotaxis index is reduced to 50% of the chemotaxis index of the CXCL12 plus DMSO control) of the test compounds was determined. All assays were performed a minimum of four times; error bars represent the standard deviation of the mean.

TC-1 tumor cells = format: in vivo; conditions: 5 mg/kg i.p. every day for 21 days; versus PBS or Vehicle controls
Description: Development of Animal Model for CXCR4 Dependent Cancer Metastasis in Lungs: To establish a CXCR4 dependent lung tumor metastasis model, we first screened several cancer cell lines that are known to metastasize to lungs in mice models to determine which cancer cell lines endogenously express CXCR4 receptor. The mice cell lines screened were Lewis lung carcinoma, B16F10 melanoma, and TC-1 cervical carcinoma. Mice cell lines were screened using flow cytometry-based surface receptor staining using a fluorochrome labeled antibody to mouse CXCR4 receptor. […] The TC-1 cell line was generated by transfection of murine lung squamous epithelial cells by Human pappillomavirus (HPV) oncogenes E6, E7, and activated Ras.
5 mg/kg body weight of AMD3100, I-28, I-36, or I-38 were also injected at the same dose intra-peritoneal (i.p.) every day for 21 days starting from the day before the tumor cell injection. Mice were sacrificed and lungs were perfused and collected on day 21 post tumor challenge. Lungs were stored in formalin for 16 hrs and then transferred into 70% ethanol until the lung lobes became lucid. All five lung lobes were separated. Tumors were counted using a magnifying glass or a microscope. Tumor sizes were measured using a digital caliper. The total number of tumors counted in all five lung lobes of an individual mouse is reported as the tumor incidence. Mean tumor sizes were added together to calculate cumulative tumor size, which is reported as the tumor burden for each mouse.

hCXCR4-GFP [2] = biological target: T1, hCXCR4-GFP; assay: Intracellular calcium mobilization assay, hCXCR4-GFP expressing 300.19 cells, CXCL12; format: cell-based; set-up: IC50 of intracellular calcium mobilization, CXCR4; other: CXCL12-mediated; other: 50 μM test compound; normalized Δ fluorescence (CXCR4, intracellular calcium mobilization); other: 50 μM test compound, 60 seconds pretreatm; conditions: for normalized Δ fluorescence (CXCR4, intracellular calcium mobilization): 50 μM test compound, 60 seconds pretreatment, optimized CXCL12 (AMD3100 concentration not given); for IC50: CXCL12-mediated, read-out: IC50 of intracellular calcium mobilization, CXCR4
Procedure: (§2) Intracellular Calcium Mobilization Assay Method: The intracellular calcium mobilization assay used 300.19 cells which stably expressed hCXCR4-GFP, as described previously in Pello et al. (2008). Cells were loaded with INDO-I and then pretreated with the 50 μM of the test compound for 60 seconds prior to stimulation of intracellular calcium mobilization with an optimized concentration of CXCL12. […] The value Δ florescence is the difference between (a) the fluorescence ratio from cells before exposure to CXCL12 at its optimized concentration and (b) the fluorescence ratio from cells following stimulation with the optimized concentration of CXCL12. Decreases in Δ florescence correspond to decreases in intracellular calcium mobilization, and therefore, decreased signaling. As CXCL12 concentration was optimized for each test compound, results are presented as normalized Δ florescence which is Δ fluorescence divided by the fluorescence ratio of optimized CXCL12-only stimulation. In some instances, the IC50 concentration (concentration at which intracellular calcium mobilization is reduced to 50% of the Δ fluorescence of the CXCL12 plus DMSO control) of the test compounds was determined. All assays were performed a minimum of four times; error bars represent the standard deviation of the mean.

hCXCR4-GFP [3] = assay: as above; format: cell-based, human; conditions: for difference between CXCR4- and BLT1-mediated intracellular calcium mobilization: 50 μM test compound
Procedure: as §2

BLT1 [4] = biological target: T2, BLT1 (Homo sapiens, UniProt Q15722); assay: Intracellular calcium mobilization assay, cells expressing BLT1, LTB4; format: cell-based; conditions: for IC50: LTB4-mediated; for normalized Δ fluorescence (BLT1, intracellular calcium mobilization): 50 μM test compound, LTB4
Procedure: as §2
At 50 μM test compound concentrations in BLT1-expressing cells, I-44 (0.040) and I-46 (0.017) inhibited intracellular calcium mobilization.

300.19 cells = assay: Cytotoxicity assay, propidium iodide based flow cytometry; format: cell-based; conditions: for cytotoxicity, percentage of cells staining positive for PI: 50 μM test compound
Procedure: Cytotoxicity Assay Method: To determine the potential for test compound cytotoxicity to influence cell intracellular calcium mobilization and chemotaxis, cell cytotoxicity was assessed using propidium iodide (PI) based flow cytometry. Propidium iodine is impermeable to intact cell membranes and thus its lack of intercalation into DNA (which increases PI fluorescence) is a positive indicator of cell viability. Cytotoxicity values are presented as percentage of cells staining positive for PI. Lower values of fluorescence indicate less cytotoxicity. All assays were performed a minimum of four times; error bars represent the standard deviation of the mean.

hCXCR4-GFP [5] = assay: Chemotaxis assay, hCXCR4-GFP expressing 300.19 cells, CXCL12; format: cell-based, human; conditions: 50 μM test compound
Procedure: as §1

BLT1 [6] = biological target: T2, BLT1; assay: Chemotaxis assay, cells expressing BLT1, LTB4; format: cell-based; conditions: 50 μM test compound, LTB4-induced
Procedure: as §1
To examine specificity of some of the compounds for CXCR4, their activity was tested against a non-family member class A G protein-coupled receptor, BLT1. […] I-38 and I-43 inhibited BLT1-mediated chemotaxis (0.23) and (0.045) to about the same extent as CXCR4-mediated chemotaxis (0.21) and (0.064), respectively.

T2 sequence (Q15722 whole entry, species assumed): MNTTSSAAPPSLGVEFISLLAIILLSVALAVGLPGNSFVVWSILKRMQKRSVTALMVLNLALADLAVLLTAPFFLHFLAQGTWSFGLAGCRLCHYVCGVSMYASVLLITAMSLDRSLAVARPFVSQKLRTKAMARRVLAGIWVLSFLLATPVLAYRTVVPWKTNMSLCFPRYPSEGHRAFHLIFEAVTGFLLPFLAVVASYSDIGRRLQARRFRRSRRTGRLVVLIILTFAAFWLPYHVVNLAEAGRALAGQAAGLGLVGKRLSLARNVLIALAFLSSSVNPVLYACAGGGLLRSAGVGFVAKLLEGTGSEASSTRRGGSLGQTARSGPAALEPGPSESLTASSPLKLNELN
T1 sequence (P61073 whole entry): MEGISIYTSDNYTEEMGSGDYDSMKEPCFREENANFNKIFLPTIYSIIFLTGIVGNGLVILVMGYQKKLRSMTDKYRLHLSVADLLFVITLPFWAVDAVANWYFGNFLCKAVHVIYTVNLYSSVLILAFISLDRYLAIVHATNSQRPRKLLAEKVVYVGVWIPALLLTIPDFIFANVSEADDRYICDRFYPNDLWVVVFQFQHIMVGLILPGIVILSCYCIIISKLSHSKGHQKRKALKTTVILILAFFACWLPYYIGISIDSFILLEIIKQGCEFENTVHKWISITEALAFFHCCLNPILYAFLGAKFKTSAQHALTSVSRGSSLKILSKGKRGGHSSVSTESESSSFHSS

IC50 (BLT1 [4])	IC50 (hCXCR4-GFP [2])	SMILES	cytotoxicity, percentage of cells staining positive for PI (300.19 cells)	difference between CXCR4- and BLT1-mediated chemotaxis (hCXCR4-GFP [5])	also measured
40 µM	45 µM	C(=C\N1CCCC1)/c1nnnn1-c1ccc2ccccc2c1 [Compound I-2, 1-(2-naphthyl)-5-(2-pyrrolidin-1-ylvinyl)tetrazole]	63.5%		difference between CXCR4- and BLT1-mediated intracellular calcium mobilization (hCXCR4-GFP [3]): no significant difference; cytotoxicity at 10 μM (300.19 cells): retained cytotoxicity
40 µM	45 µM	CCc1ccc(OCCNc2cc(N3CCNC(C)C3)ccc2[N+](=O)[O-])cc1 (centres unmarked) [Compound I-4, N-[2-(4-ethylphenoxy)ethyl]-5-(3-methylpiperazin-1-yl)-2-nitro-aniline]	98.8%	small differences	difference between CXCR4- and BLT1-mediated intracellular calcium mobilization (hCXCR4-GFP [3]): no significant difference; cytotoxicity at 5 μM (300.19 cells; 5 μM): maintained cytotoxicity
2.5 µM	5 µM	COc1ccccc1C(=O)OCCNc1nc2cc(C)cc(C)c2cc1C#N [Compound I-12, 2-[(3-cyano-5,7-dimethyl-2-quinolyl)amino]ethyl 2-methoxybenzoate]			difference between CXCR4- and BLT1-mediated intracellular calcium mobilization (hCXCR4-GFP [3]): no significant difference
30 µM	50 µM	CCOc1ccc(NCC(O)Cn2c3ccccc3n3c(=O)cc(C)c(C#N)c23)cc1 (centres unmarked) [Compound I-15, 5-[3-[(4-ethoxyphenyl)amino]-2-hydroxypropyl]-1,5-dihydro-3-methyl-1-oxo-pyrido[1,2-a]benzimidazole-4-carbonitrile]			fold greater inhibition of CXCR4-mediated than BLT1-mediated intracellular calcium mobilization (hCXCR4-GFP [3]; from normalized Δ fluorescence): ~3 fold; normalized Δ fluorescence (BLT1, intracellular calcium mobilization) (BLT1 [4]): 0.16; normalized Δ fluorescence (CXCR4, intracellular calcium mobilization) (hCXCR4-GFP [2]): 0.45
30 µM	35 µM	CCOc1ccc(NCC(O)Cn2c3ccccc3c3ccccc32)cc1 (centres unmarked) [Compound I-16, 1-carbazol-9-yl-3-(4-ethoxyphenyl)amino-propan-2-ol]	67.9%	small differences	cytotoxicity at 10 μM (300.19 cells): retained cytotoxicity

The next lines start with the molecule.

SMILES	IC50 (BLT1 [4])	IC50 (hCXCR4-GFP [2])	cytotoxicity, percentage of cells staining positive for PI (300.19 cells)	difference between CXCR4- and BLT1-mediated chemotaxis (hCXCR4-GFP [5])	also measured
c1cc(CN2CCCNCCNCCCNCC2)ccc1CN1CCCNCCNCCCNCC1 [AMD3100, reference compound]					inhibition of chemotaxis (hCXCR4-GFP [1]; concentrations ranging from 50 nM to 100 nM, data not shown): completely inhibited; TC-1 metastatic tumor incidence and burden in lungs (TC-1 tumor cells): reduced mice TC-1 metastatic tumor incidence and burden in lungs; also recorded: metastasis of TC-1 was significantly inhibited; normalized Δ fluorescence (CXCR4, intracellular calcium mobilization) (hCXCR4-GFP [2]): 0.51
N=c1n(CCN2CCCCC2)c2ccccc2n1CC(O)COc1ccc(Cl)cc1 (centres unmarked) [Compound I-5, 1-(4-chlorophenoxy)-3-[2-imino-3-[2-(1-piperidyl)ethyl]benzoimidazol-1-yl]-propan-2-ol]				small differences	
C=C(C)C1CC=C(CN(CCCN(C)C)CCCN(C)C)CC1 (centres unmarked) [Compound I-6, N-(3-dimethylaminopropyl)-N-[(4-isopropenyl-1-cyclohexenyl)methyl]-N′,N′-dimethyl-propane-1,3-diamine]				small differences	
COc1ccc(NCc2nc3ccccc3n2CCOc2ccccc2C)cc1 [Compound I-7, N-((1-(2-(o-tolyloxy)ethyl)-1H-benzo[d]imidazol-2-yl)methyl)-4-methoxybenzenamine]			53.4%		cytotoxicity at 10 μM (300.19 cells): retained cytotoxicity
CCOc1ccc(NCc2nc3ccccc3n2CCOc2ccccc2)cc1 [Compound I-8, 4-ethoxy-N-((1-(2-phenoxyethyl)-1H-benzo[d]imidazol-2-yl)methyl)benzenamine]				small differences	
CCC(=O)NCCNc1nc2cc(C)cc(C)c2cc1C#N [Compound I-13, N-[2-[(3-cyano-5,7-dimethyl-2-quinolyl)amino]ethyl]propanamide]	2.5 µM	5 µM			difference between CXCR4- and BLT1-mediated intracellular calcium mobilization (hCXCR4-GFP [3]): no significant difference
CCOC(=O)c1c(C)[nH]c(C(=O)COC(=O)c2c(-c3ccccc3)noc2C)c1C [Compound I-32, [2-(4-ethoxycarbonyl-3,5-dimethyl-1H-pyrrol-2-yl)-2-oxo-ethyl]5-methyl-3-phenyl-isoxazole-4-carboxylate]				small differences	
COC(=O)c1ccc(NC(=O)c2ccc3nc(-c4ccccn4)c(-c4ccccn4)nc3c2)cc1 [Compound I-39, methyl 4-(2,3-di(pyridin-2-yl)quinoxaline-6-carboxamido)benzoate]					normalized Δ fluorescence (CXCR4, intracellular calcium mobilization) (hCXCR4-GFP [2]): 0.31
O=C(/C=C/c1ccccc1)NC(=S)Nc1cccc(-c2nc3ncccc3o2)c1 [Compound I-40, 1-(3-(oxazolo[4,5-b]pyridin-2-yl)phenyl)-3-((E)-3-phenylacryloyl)thiourea]			88.3%		
CN1C/C(=C/c2cccnc2)C(=O)/C(=C/c2cccnc2)C1 [Compound I-43, (3E,5Z)-1-methyl-3,5-bis((pyridin-3-yl)methylene)piperidin-4-one]					chemotaxis index (CXCR4-mediated) (hCXCR4-GFP [1]; 50 μM test compound plus optimized CXCL12, normalized to CXCL12 plus DMSO control): 0.064; IC50 (hCXCR4-GFP [1]; hCXCR4-GFP 300.19 cells, CXCL12): 20 µM; chemotaxis index (BLT1-mediated) (BLT1 [6]): 0.045
COc1ccc(-c2cc(-c3ccccc3)cc3sc(/C(N)=N\C#N)c(N)c23)cc1 [Compound I-44, (E)-3-amino-N′-cyano-4-(4-methoxyphenyl)-6-phenylbenzo[b]thiophene-2-carboxamidine]			99.8%		normalized Δ fluorescence (BLT1, intracellular calcium mobilization) (BLT1 [4]): 0.040; normalized Δ fluorescence (CXCR4, intracellular calcium mobilization) (hCXCR4-GFP [2]): 0.29
